Results on ten compounds are retold here after ChEMBL document CHEMBL1201862, “PubChem BioAssay data set” (2004).

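All cell lines were grown in 96-well plates and treated with compound for 48 hours. GI50 marks 50% less growth.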 Active and inactive are the calls of the source. Rule as the data show it: active = GI50 up to about 1.1 µM and inactive = higher.

Some test systems named below: SK-MEL-28; SK-MEL-2; LOX IMVI; HL-60; UACC-62; U-251; OVCAR-8; 786-0; OVCAR-3; NCI/ADR-RES; HCC 2998; MDA-MB-231; MDA-MB-435; ACHN; NCI-H23; OVCAR-5; EKVX; A549; Malme-3M; SNB-19.
Common to all, as to assay: NCI-60 cell line screen, 48 h

As to `O=c1c2nc[nH]c2n(-c2ccccc2)c(=S)n1-c1ccccc1`, the GI50 with SK-MEL-28, in the test on SK-MEL-2, in the test with LOX IMVI, with HL-60, with UACC-62 and in the test with U-251 was > 100 µM (inactive) in each case. In addition, the GI50 in the test on OVCAR-8, in the test on 786-0, in the test with OVCAR-3, in the test on NCI/ADR-RES, in the test with HCC 2998 and in the test on MDA-MB-231 was > 100 µM (inactive) in each case. In addition, the GI50 with MDA-MB-435, with ACHN, in the test on NCI-H23, in the test with OVCAR-5, in the test on EKVX and with A549 was > 100 µM (inactive) throughout.

With `CO[C@H]1[C@@H](O)[C@@H](C)O[C@@H](O[C@H]2CC[C@@]3(C)[C@H](CC[C@@H]4[C@@H]3CC[C@]3(C)[C@@H](C5=CC(=O)OC5)CC[C@]43O)C2)[C@@H]1O` [ODOROSIDE H], the GI50 in the test with SK-MEL-28 is 0.0394 µM (active); in the test on SK-MEL-2, 0.0169 µM (active); in the test on LOX IMVI, 0.00689 µM (active); in the test with HL-60, 0.00378 µM (active); in the test with Malme-3M it was 0.00441 µM (active); with UACC-62, 0.00689 µM (active). Besides, the GI50 was 0.00836 µM (active) in the test on U-251; 0.00661 µM (active) in the test on OVCAR-8; 0.00453 µM (active) in the test with 786-0; 0.00531 µM (active) in the test with OVCAR-3; 0.00548 µM (active) with NCI/ADR-RES; 0.0215 µM (active) in the test with SNB-19. Besides, the GI50 is 0.0149 µM (active) with HCC 2998; 0.0413 µM (active) in the test with MDA-MB-231; 0.00908 µM (active) in the test on MDA-MB-435; 0.00304 µM (active) in the test with ACHN; 0.00462 µM (active) in the test on NCI-H23; 0.0321 µM (active) in the test on OVCAR-5. The GI50 with EKVX is 0.00474 µM (active); in the test with A549, 0.00288 µM (active).

As for `Fc1cccc(F)c1C1SCc2nc3cc(Cl)c(Cl)cc3n21` (stereo not given), the GI50 with SK-MEL-28, in the test on SK-MEL-2, with LOX IMVI, in the test with HL-60, with Malme-3M and in the test with UACC-62 was > 100 µM (inactive) throughout. The GI50 in the test with U-251 is > 100 µM (inactive); in the test on OVCAR-8, > 100 µM (inactive); with 786-0, > 73.5 µM (inactive); with OVCAR-3 it was > 100 µM (inactive); in the test on NCI/ADR-RES, > 100 µM (inactive); in the test with SNB-19 it was > 100 µM (inactive). Moreover, the GI50 with HCC 2998, in the test with MDA-MB-231, in the test with MDA-MB-435, in the test on ACHN, with NCI-H23 and in the test on OVCAR-5 was > 100 µM (inactive) in each case. Moreover, the GI50 in the test on EKVX and in the test with A549 was > 100 µM (inactive) throughout.

On to `O=C1C=Cc2c(Br)sc(Br)c21`, for which the GI50 was 28.8 µM (inactive) in the test with SK-MEL-28; 26.9 µM (inactive) in the test on SK-MEL-2; 20.5 µM (inactive) in the test on LOX IMVI; 23.1 µM (inactive) in the test on HL-60; 23.1 µM (inactive) with Malme-3M; 23.7 µM (inactive) in the test with UACC-62. Further, the GI50 is 18.5 µM (inactive) with U-251; 26.5 µM (inactive) in the test with OVCAR-8; 34.9 µM (inactive) in the test with 786-0; 15.8 µM (inactive) in the test on OVCAR-3; 36.1 µM (inactive) in the test with NCI/ADR-RES; > 100 µM (inactive) with SNB-19. Besides, the GI50 is 15.2 µM (inactive) in the test on HCC 2998; 21.7 µM (inactive) with MDA-MB-231; 19.1 µM (inactive) in the test on MDA-MB-435; 24.7 µM (inactive) in the test with ACHN; 26.7 µM (inactive) in the test with NCI-H23; 35.6 µM (inactive) with OVCAR-5. Besides, the GI50 in the test on EKVX is 26.1 µM (inactive); in the test with A549 it was 55.1 µM (inactive).

For the compound `O/N=C(/CC(O)(C(F)(F)F)C(F)(F)F)c1ccccc1`, the GI50 in the test with SK-MEL-28, in the test with SK-MEL-2, in the test with LOX IMVI, in the test with HL-60, in the test on Malme-3M and with UACC-62 was > 10 µM (inactive) throughout. Moreover, the GI50 in the test on U-251, in the test with OVCAR-8, with 786-0, in the test with OVCAR-3, in the test with NCI/ADR-RES and with SNB-19 was > 10 µM (inactive) in each case. In addition, the GI50 in the test on HCC 2998, in the test on MDA-MB-231, in the test with MDA-MB-435, in the test on ACHN, in the test with NCI-H23 and with OVCAR-5 was > 10 µM (inactive) throughout. For the same compound, the GI50 with EKVX and in the test on A549 was > 10 µM (inactive) throughout.

On to `CSc1c(CC(=O)Nc2ccc(Cl)cc2)n(Cc2ccccc2)c2ccccc12`, for which the GI50 is > 100 µM (inactive) in the test on SK-MEL-28; 14.2 µM (inactive) in the test on SK-MEL-2; 38 µM (inactive) in the test with LOX IMVI; > 100 µM (inactive) with HL-60; 57.7 µM (inactive) in the test on Malme-3M; 18.1 µM (inactive) with UACC-62. The GI50 was 11.6 µM (inactive) in the test on U-251; 12.3 µM (inactive) in the test on OVCAR-8; 11.3 µM (inactive) in the test with 786-0; > 100 µM (inactive) in the test on OVCAR-3; 19.4 µM (inactive) with NCI/ADR-RES; 46.9 µM (inactive) in the test with SNB-19. The GI50 with HCC 2998 is 19.5 µM (inactive); with MDA-MB-231, 14.8 µM (inactive); in the test on MDA-MB-435, 49.3 µM (inactive); in the test on ACHN, 24.7 µM (inactive); in the test on NCI-H23, 29.1 µM (inactive); in the test on OVCAR-5, 29.6 µM (inactive). Besides, the GI50 in the test with EKVX was 12.1 µM (inactive); in the test with A549, 43.5 µM (inactive).

`COc1ccc(Cl)cc1NC(=O)O/N=C(\Cl)C(C)C`: the GI50 in the test with SK-MEL-28 is 18.4 µM (inactive); in the test on SK-MEL-2 it was 18.7 µM (inactive); with LOX IMVI, 2.08 µM (inactive); with HL-60, 2.16 µM (inactive); in the test with Malme-3M, 1.94 µM (inactive); with UACC-62 it was 12.9 µM (inactive). Moreover, the GI50 in the test with U-251 is 26.4 µM (inactive); in the test with OVCAR-8 it was 15 µM (inactive); in the test with 786-0 it was 13 µM (inactive); with OVCAR-3 it was 6 µM (inactive); in the test on NCI/ADR-RES, 5.27 µM (inactive); in the test with SNB-19, 29.5 µM (inactive). Further, the GI50 with HCC 2998 was 16.4 µM (inactive); with MDA-MB-231, 6.22 µM (inactive); with MDA-MB-435 it was 18.3 µM (inactive); in the test with ACHN, 2.12 µM (inactive); in the test with NCI-H23 it was 17.6 µM (inactive); in the test on OVCAR-5 it was 18.4 µM (inactive). Moreover, the GI50 in the test on EKVX is 3.74 µM (inactive); in the test on A549, 18.8 µM (inactive).

As to `CN(C)c1ccc(-c2ccc(N(C)C)c3n[se]nc23)c2n[se]nc12`, the GI50 in the test on SK-MEL-28, with SK-MEL-2, with LOX IMVI, in the test on HL-60, with Malme-3M and in the test with UACC-62 was > 100 µM (inactive) in each case. In addition, the GI50 with U-251, in the test with OVCAR-8, in the test with 786-0, with OVCAR-3, in the test with NCI/ADR-RES and with HCC 2998 was > 100 µM (inactive) in each case. For the same compound, the GI50 in the test on MDA-MB-231, with MDA-MB-435, in the test on ACHN, in the test on NCI-H23, with OVCAR-5 and in the test with EKVX was > 100 µM (inactive) throughout. Besides, the GI50 with A549 was > 100 µM (inactive).

For the compound `CC(C)[C@@H]1CC[C@@H](C)C[C@H]1OC(=O)c1c2n(c3ccccc13)C[C@H]1OC(C)(C)O[C@@H]21`, the GI50 in the test with SK-MEL-28 was 46.7 µM (inactive); with SK-MEL-2 it was > 100 µM (inactive); in the test on LOX IMVI, 6.18 µM (inactive); with HL-60, 5.56 µM (inactive); in the test with Malme-3M it was 7.64 µM (inactive); with UACC-62, 18 µM (inactive). The GI50 in the test with U-251 was 5.14 µM (inactive); in the test with OVCAR-8, 20.9 µM (inactive); with 786-0, 16.5 µM (inactive); in the test on OVCAR-3 it was 18.2 µM (inactive); with NCI/ADR-RES, 13.2 µM (inactive); in the test on HCC 2998, 26.3 µM (inactive). Also, the GI50 in the test on MDA-MB-231 was 23 µM (inactive); with MDA-MB-435, 30.5 µM (inactive); in the test with ACHN, 8.22 µM (inactive); in the test on NCI-H23, 5.77 µM (inactive); with OVCAR-5, > 100 µM (inactive); with EKVX, 6.81 µM (inactive). Besides, the GI50 in the test with A549 was 18.9 µM (inactive).

`COC(=O)c1ccccc1C1=C([N+](=O)[O-])C(c2cccc(Br)c2)C(C#N)=C(N)O1` (stereo not given): the GI50 with SK-MEL-28 was 52.6 µM (inactive); in the test on SK-MEL-2, > 100 µM (inactive); in the test with LOX IMVI, 19.4 µM (inactive); in the test on HL-60, 29 µM (inactive); in the test on UACC-62, 21 µM (inactive); with U-251, > 100 µM (inactive). Further, the GI50 is 21 µM (inactive) in the test on OVCAR-8; 25.6 µM (inactive) in the test with 786-0; 20.7 µM (inactive) in the test with OVCAR-3; 23.3 µM (inactive) in the test with NCI/ADR-RES; 91.6 µM (inactive) in the test on SNB-19; 26.3 µM (inactive) with HCC 2998. For the same compound, the GI50 in the test on MDA-MB-231 is 73.8 µM (inactive); in the test with MDA-MB-435 it was 22.7 µM (inactive); in the test with ACHN, 23.6 µM (inactive); with NCI-H23 it was 27.1 µM (inactive); with OVCAR-5 it was > 100 µM (inactive); in the test with EKVX, 36.1 µM (inactive). The GI50 in the test on A549 was > 100 µM (inactive).
